The results in this text go back to patent US9884043B2, “RORgammaT inhibitors” (Merck Sharp & Dohme Corp., priority 2011, dated 2018).

The structures appear in SMILES notation. Some results are limits rather than exact numbers.

The first test deals with T1, 6His(GST)RORgamma-LBD (Homo sapiens, UniProt P51449).
T1 construct: the applied RORgamma-LBD contains a 6-His and GST tag; GST (N); made in house; host or cells: baculovirus-infected Sf-21 insect cells
T1 sequence (P51449 269-508 limits assumed): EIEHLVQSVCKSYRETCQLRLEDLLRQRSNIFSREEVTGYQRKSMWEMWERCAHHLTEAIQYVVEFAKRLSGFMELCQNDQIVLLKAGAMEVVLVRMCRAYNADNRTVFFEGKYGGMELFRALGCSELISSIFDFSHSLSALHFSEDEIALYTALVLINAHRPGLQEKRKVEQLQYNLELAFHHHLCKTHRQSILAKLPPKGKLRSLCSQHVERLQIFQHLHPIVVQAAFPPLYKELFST
Description: TR-FRET assay (Protocol A), RORgamma-LBD / SRC1_2 co-activator peptide interaction. The format is biochemical. The note with it: SRC1_2 peptide 0.1 μM, RORgamma-LBD 10 nM, overnight incubation at 4° C. From the text: Activation of RORgammaT activity can be measured using e.g. biochemical TR-FRET assay. In such an assay, interaction of cofactor-derived peptides with human RORgammaT-Ligand Binding Domain (LBD) can be measured.
To identify novel antagonists of RORgammaT, an assay was developed which employs the interaction of RORgammaT with its co-activator peptide SRC1_2. […] The assay was run following three slightly different protocols, i.e. Protocol A, Protocol B, and Protocol C, which are described below.
TR-FRET Assay (Protocol A)
The 6His(GST)RORgamma-LBD was expressed and purified from baculovirus infected Sf-21 insect cells (Bac-to-BAC, Invitrogen) and purified using glutathione sepharose chromatography (GE healthcare). Biotin and His function as anchoring points for streptavidin-allophycocyanin (Strep-APC, Perkin Elmer, C130-100) and anti-His-Europium Cryptate (Perkin Elmer, AD0111), respectively. Since energy transfer between the streptavidin and His-coupled labels APC and europium cryptate can only take place when these labels are in close proximity, measurement of energy transfer in a mixture of biotinylated peptide, His-GR-LBD, streptavidin-APC and anti-His-Europium Cryptate will be indicative for RORy-LBD/peptide binding. […] Changes in peptide binding caused by dose-curves of compounds added to the reaction mixture (DMSO concentration 0.1%), can likewise be monitored.
Background: Time-resolved FRET reads energy transfer from a long-lived donor to a nearby acceptor.
Usually EC50 stands for the concentration needed to bring the measured effect to its halfway point. With `Cc1cc(C)cc(S(=O)(=O)n2nc(-c3ccc(C(=O)O)c(C(F)(F)F)c3)c3ccccc32)c1` [Example 18, 4-(1-(3,5-dimethylphenylsulfonyl)-1H-indazol-3-yl)-2-(trifluoromethyl)benzoic acid], the EC50 is 3.31 µM.

Molecule `O=S(=O)(c1cccc(Cl)c1)n1nc(-c2ccc(-c3nnn[nH]3)cc2)c2ccccc21` [Example 20, 3-(4-(1H-tetrazol-5-yl)phenyl)-1-(3-chlorophenylsulfonyl)-1H-indazole] had a half-maximal effective concentration (EC50) of 3.55 µM. As to `COC(=O)c1sccc1S(=O)(=O)n1nc(-c2ccc(-c3nnn[nH]3)cc2)c2ccccc21` [Example 21A, methyl 3-(3-(4-(1H-tetrazol-5-yl)phenyl)-1H-indazol-1-ylsulfonyl)thiophene-2-carboxylate], the EC50 was 0.389 µM. Same read-out and setting: the figure for `O=S(=O)(c1ccc(F)cc1Br)n1nc(-c2ccc(-c3nnn[nH]3)cc2)c2ccccc21` [Example 21B, 3-(4-(1H-tetrazol-5-yl)phenyl)-1-(2-bromo-4-fluorophenylsulfonyl)-1H-indazole] is 0.575 µM.

For `O=S(=O)(c1sc(Cl)cc1Br)n1nc(-c2ccc(-c3nnn[nH]3)cc2)c2ccccc21` [Example 21C, 3-(4-(1H-tetrazol-5-yl)phenyl)-1-(3-bromo-5-chlorothiophen-2-ylsulfonyl)-1H-indazole], the EC50 was 0.617 µM.

With `Cc1noc(C)c1S(=O)(=O)n1nc(-c2ccc(-c3nnn[nH]3)cc2)c2ccccc21` [Example 21D, 4-(3-(4-(1H-tetrazol-5-yl)phenyl)-1H-indazol-1-ylsulfonyl)-3,5-dimethylisoxazole], a half-maximal effect (EC50) was put at 0.741 µM. On the same count and under the same terms, for `O=C(c1c(Cl)cccc1Cl)n1nc(-c2ccc(-c3nnn[nH]3)cc2)c2ccccc21` [Example 22, (3-(4-(1H-tetrazol-5-yl)phenyl)-1H-indazol-1-yl)(2,6-dichlorophenyl)methanone] the value was 5.01 µM; for `O=C(c1cccc(Cl)c1Cl)n1nc(-c2ccc(-c3nnn[nH]3)cc2)c2ccccc21` [Example 23, (3-(4-(1H-tetrazol-5-yl)phenyl)-1H-indazol-1-yl)(2,3-dichlorophenyl)methanone], 1.02 µM.

For the next test, the target named is T2, HIS-tagged RORγ-LBD (Homo sapiens, UniProt P51449).
T2 construct: HIS-tagged RORγ-LBD was recombinantly expressed in SF9 cells using a baculovirus expression system; made in house; host or cells: SF9 cells, baculovirus; crude lysate used
T2 sequence (P51449 269-508 limits assumed): T1 sequence (P51449 269-508 limits assumed)
Description: TR-FRET assay (Protocol C), purified RORγ-LBD / biotinylated SRC1 LXXLL peptide. The format is biochemical. The note with it: purified RORγ-LBD 3 nM, SRC1 peptide 100 nM, overnight at 4° C. An excerpt: Activation of RORgammaT activity can be measured using e.g. biochemical TR-FRET assay. In such an assay, interaction of cofactor-derived peptides with human RORgammaT-Ligand Binding Domain (LBD) can be measured. The TR-FRET technique is a sensitive biochemical proximity assay that will give information concerning the interaction of a ligand with the LBD, in the presence of cofactor derived peptides (Zhou et al., Methods 25:54-61, 2001).
To identify novel antagonists of RORgammaT, an assay was developed which employs the interaction of RORgammaT with its co-activator peptide SRC1_2. This peptide mimics the recruitment of co-activators to RORgammaT through its interaction with the LXXLL (SEQ ID NO:2) (eg NR box) motifs (Xie et al., J. Immunol. 175: 3800-09, 2005; Kurebayashi et al., Biochem. Biophys. Res. Commun. 315: 919-27, 2004; Jin et al., Mol. Endocrinology 24:923-29, 2010). The assay was run following three slightly different protocols, i.e. Protocol A, Protocol B, and Protocol C, which are described below.
TR-Fret Assay (Protocol C)
HIS-tagged RORγ-LBD protein was expressed in SF9 cells using a baculovirus expression system. The RORγ-LBD protein was purified by glutathione sepharose chromatography. Separately, SF9 cells not expressing any recombinant protein were lysed and the lysate was added to the purified RORγ-LBD at 0.25 μl lysate (from 10,000 SF9 cells)/nM purified protein. The mixture was then diluted in assay buffer (50 mM Tris pH 7.0, 50 mM KCl, 1 mM EDTA, 0.1 mM DTT) to obtain RORγ-LBD final concentration of 3 nM in 384-well assay plate.
Compounds to be tested were injected to the assay plate using Acoustic Droplet Ejection technology by Echo 550 liquid handler (Labcyte, Calif.). A stock of biotinylated-LXXLL (SEQ ID NO:2) peptide from coactivator SRC1 (Biotin-[…]) (SEQ ID NO: 1) was prepared in assay buffer and added to each well (100 nM final concentration). A solution of Europium tagged anti-HIS antibody (1.25 nM final concentration) and APC conjugated streptavidin (8 nM final concentration) were also added to each well.
The final assay mixture was incubated for overnight at 4° C., and the fluorescence signal was measured on an Envision plate reader: (Excitation filter=340 nm; APC emission=665 nm; Europium emission=615 nm; dichroic mirror=D400/D630; delay time=100 μs, integration time=200 μs). IC50 values for test compounds were calculated from the quotient of the fluorescence signal at 665 nm divided by the fluorescence signal at 615 nm.
As a reminder, the IC50 is the concentration needed to halve the response being measured. Lower therefore signals greater potency in that assay. On to `O=C(O)c1cc(-c2nn(C(=O)c3c(Cl)cccc3C(F)(F)F)c3cccnc23)ccc1O` [Example 24AL, 5-(1-(2-chloro-6-(trifluoromethyl)-benzoyl)-1H-pyrazolo[4,3-b]pyridin-3-yl)-2-hydroxybenzoic acid], for which the IC50 is greater than 10 µM. As for `O=C(O)c1ccc(-c2nn(C(=O)c3c(Cl)cccc3C(F)(F)F)c3ccccc23)c(Cl)c1` [Example 24AS, 3-chloro-4-(1-(2-chloro-6-(trifluoromethyl)-benzoyl)-1H-indazol-3-yl)benzoic acid], the IC50 was less than 0.05 µM. On the same count and under the same terms, for `COc1cccc(F)c1C(=O)n1nc(-c2ccc(C(=O)O)cc2F)c2ccccc21` [Example 24AU, sodium 3-fluoro-4-(1-(2-fluoro-6-methoxybenzoyl)-1H-indazol-3-yl)benzoate] the value was less than 0.05 µM; for `COc1cccc(F)c1C(=O)n1nc(-c2ccc(C(=O)O)cc2)c2cccc(F)c21` [Example 24AV, 4-(7-fluoro-1-(2-fluoro-6-methoxybenzoyl)-1H-indazol-3-yl)benzoic acid], 0.05 to 0.5 µM. On to `COc1cccc(F)c1C(=O)n1nc(-c2ccc(C(=O)O)cc2F)c2cccc(F)c21` [Example 24AW, 3-fluoro-4-(7-fluoro-1-(2-fluoro-6-methoxybenzoyl)-1H-indazol-3-yl)benzoic acid], for which the IC50 was 0.05 to 0.5 µM. Consider `COCc1ccc2c(-c3ccc(C(=O)O)cc3)nn(C(=O)c3c(Cl)cccc3C(F)(F)F)c2c1` [Example 24BG, 4-(1-(2-chloro-6-(trifluoromethyl)-benzoyl)-6-(methoxymethyl)-1H-indazol-3-yl)benzoic acid], for which the IC50 is 0.05 to 0.5 µM.

The molecule `COCCCNC(=O)c1ccc2c(-c3ccc(C(=O)O)cc3F)nn(C(=O)c3c(Cl)cccc3C(F)(F)F)c2c1` [Example 25N, 4-(1-(2-chloro-6-(trifluoromethyl)benzoyl)-6-(3-methoxypropyl-carbamoyl)-1H-indazol-3-yl)-3-fluorobenzoic acid] displayed a concentration for half-maximal inhibition (IC50) of less than 0.05 µM. The same measure, in the same setting: the figure for `COCCN(C)C(=O)c1ccc2c(-c3ccc(C(=O)O)cc3F)nn(C(=O)c3c(Cl)cccc3C(F)(F)F)c2c1` [Example 25S, 4-(1-(2-chloro-6-(trifluoromethyl)benzoyl)-6-((2-methoxyethyl) (methyl)carbamoyl)-1H-indazol-3-yl)-3-fluorobenzoic acid] is less than 0.05 µM; for `O=C(O)c1ccc(-c2nn(C(=O)c3c(Cl)cccc3C(F)(F)F)c3cc(C(=O)N4CC(F)C4)ccc23)cc1` [Example 25T, 4-(1-(2-chloro-6-(trifluoromethyl)benzoyl)-6-(3-fluoroazetidine-1-carbonyl)-1H-indazol-3-yl)benzoic acid] it is less than 0.05 µM. On the same count and under the same terms, the figure for `O=C(O)c1ccc(-c2nn(C(=O)c3c(Cl)cccc3C(F)(F)F)c3cc(C(=O)N4CC(F)(F)C4)ccc23)cc1` [Example 25U, 4-(1-(2-chloro-6-(trifluoromethyl)benzoyl)-6-(3,3-difluoroazetidine-1-carbonyl)-1H-indazol-3-yl)benzoic acid] is less than 0.05 µM; for `O=C(O)c1ccc(-c2nn(C(=O)c3c(Cl)cccc3C(F)(F)F)c3cc(C(=O)N4CCCC4)ccc23)cc1` [Example 25V, 4-(1-(2-chloro-6-(trifluoromethyl)benzoyl)-6-(pyrrolidine-1-carbonyl)-1H-indazol-3-yl)benzoic acid] it is less than 0.05 µM; for `O=C(O)c1ccc(-c2nn(C(=O)c3c(Cl)cccc3C(F)(F)F)c3cc(C(=O)N4CCC4)ccc23)cc1` [Example 25W, 4-(6-(azetidine-1-carbonyl)-1-(2-chloro-6-(trifluoromethyl)benzoyl)-1H-indazol-3-yl)benzoic acid] it is less than 0.05 µM. The same measure, in the same setting: the figure for `O=C(O)c1cc(F)c(-c2nn(C(=O)c3c(Cl)cccc3C(F)(F)F)c3cccc(F)c23)cc1O` [Example 26F, 4-(1-(2-chloro-6-(trifluoromethyl)benzoyl)-4-fluoro-1H-indazol-3-yl)-5-fluoro-2-hydroxybenzoic acid] is less than 0.05 µM.

The molecule `O=C(O)c1c(F)cc(-c2nn(C(=O)c3c(Cl)cccc3C(F)(F)F)c3cccc(F)c23)c(F)c1O` [Example 26G, 4-(1-(2-chloro-6-(trifluoromethyl)benzoyl)-4-fluoro-1H-indazol-3-yl)-3,6-difluoro-2-hydroxybenzoic acid] returned an IC50 of less than 0.05 µM.
